One data set concerns P. aeruginosa. As to conditions: for MIC P. aeruginosa (H187): Table 6; for MIC H103: MBI 29 and MBI21 derivatives. Here is the method: (§1) FICs are performed by checkerboard titrations of peptides in one dimension of a microtiter plate, and of antibiotics in the other dimension, for example. The FIC is calculated by looking at the impact of one antibiotic on the MIC of the other and vice versa. […] Preferably, an FIC of less than 0.5 is obtained for synergism. As used herein, FIC can be determined as follows: [formula]
(§2) Briefly, cells were grown overnight at 37° C. in LB-S (Luria broth without any salt supplement) and diluted one in 10,000 in the same medium to give concentrations of about 10^4 to 10^5 CFU/ml. The broth dilutions were set up in a 96 well microtiter plate by putting 200 μl of LB-S containing the initial concentration of antibiotic or compound in column 1 and 100 μl of the same medium in columns 2-12. The compounds were diluted by taking 100 μl of broth from column 1 and mixing it with column 2, resulting in a one in two dilution. This was continued to column 10. Finally, 10 μl of bacteria were pipetted into columns 1-11, and the plates incubated overnight at 37° C. The next day the plates were scored for growth in the wells, and the MIC determined.

In the next data set the test system is E. coli. Briefly: MIC, broth dilution in LB-S. In kind it is cell-based. As to conditions: for MIC E. coli (UB 1005): Table 6; for MIC E. coli 0111:B4: MBI 29 and MBI21 derivatives. Here is the method: (§3) The biological activity of the peptides can be determined by standard methods known to those of skill in the art, such as “minimal inhibitory concentration (MIC)” assay described in the present examples, whereby the lowest concentration at which no change in OD is observed for a given period of time is recorded as MIC. Alternatively, “fractional inhibitory concentration (FIC)” is also useful for determination of synergy between the peptides of the invention, or the peptides in combination with known antibiotics. FICs are performed by checkerboard titrations of peptides in one dimension of a microtiter plate, and of antibiotics in the other dimension, for example. The FIC is calculated by looking at the impact of one antibiotic on the MIC of the other and vice versa. […] Preferably, an FIC of less than 0.5 is obtained for synergism. As used herein, FIC can be determined as follows: [formula]
as §2
For orientation: Dilution methods test growth across graded concentrations, often in twofold steps.

A further data set concerns Red Blood Cells. In words: Red blood cell lysis. In kind it is cell-based. As to conditions: concentration lysing Red Blood Cells.
Another data set concerns S. epidermis. As to conditions: S. epi 0017; MBI 29 and MBI21 derivatives. Here is the method:
as §1, §2

A further data set has as its system B. Subtilis. Briefly: MIC, broth dilution in LB-S. In kind it is cell-based. As to conditions: MBI 29 and MBI21 derivatives. The procedure:
as §3, §2

A further data set deals with E. faecalis. Briefly: MIC, broth dilution in LB-S. In kind it is cell-based. As to conditions: MBI 29 and MBI21 derivatives. The procedure:
as §3, §2

In a further data set the test system is S. aureus. In words: MIC, broth dilution in LB-S. As to conditions: MBI 29 and MBI21 derivatives. In kind it is cell-based. Here is the method: as §3, §2
The test system of another data set is C610. Briefly: MIC, broth dilution in LB-S. In kind it is cell-based, S. typhimurium. As to conditions: MBI 29 and MBI21 derivatives. The procedure: as §3, §2

Ends that are not written are not given here.

Consider `CC[C@H](C)[C@H](NC(=O)[C@H](CC(C)C)NC(=O)[C@H](C)NC(=O)[C@@H]1CCCN1C(=O)[C@H](CC(C)C)NC(=O)CNC(=O)[C@@H](NC(=O)[C@@H](NC(=O)[C@H](CC(C)C)NC(=O)[C@@H](NC(=O)[C@H](CCCCN)NC(=O)[C@H](CCCCN)NC(=O)[C@@H](NC(=O)[C@H](C)NC(=O)[C@@H](NC(=O)[C@@H](NC(=O)[C@H](CC(C)C)NC(=O)[C@H](CCCCN)NC(=O)[C@H](CCCCN)NC(=O)[C@@H](NC(=O)[C@H](Cc1ccccc1)NC(=O)[C@H](CCC(=O)O)NC(=O)[C@H](CCCCN)NC(=O)[C@H](Cc1c[nH]c2ccccc12)NC(=O)[C@@H](N)CCCCN)[C@@H](C)CC)[C@@H](C)O)[C@@H](C)O)C(C)C)C(C)C)[C@@H](C)O)[C@@H](C)O)C(=O)N[C@@H](CO)C(=O)O` [compound 492], for which the “MIC P. aeruginosa (H187)” value in the data set with P. aeruginosa was determined as 4.8 µg/mL. Moreover, the “MIC E. coli (UB 1005)” value in the data set with E. coli was found to be 2.4 µg/mL. The “RBC Lysis” value with Red Blood Cells is over 55 µg/mL.
In the same order, the values of “KWKKFIKELQKVLAPGGLLSNIVTSL [compound 493]” are 10 µg/mL, 5 µg/mL and over 55 µg/mL.
In the same order, the values of “KWKSFIKNLEKVLKKGPILANLVSIV [compound 491]” are 8 µg/mL, 2 µg/mL and over 55 µg/mL.
In the case of “KWKSFIKNLEKVLKPGGLLSNIVTSL [compound 490]”, the “MIC P. aeruginosa (H187)” value in the data set on P. aeruginosa was 8 µg/mL. The “MIC E. coli (UB 1005)” value in the data set with E. coli worked out at 1 µg/mL. Besides, in the data set with Red Blood Cells, the “RBC Lysis” value is over 55 µg/mL.
For the compound KWKSFIKNLTKVLKKVVTTALPALIS [MBI29A2], the “MIC H103” value in the data set on P. aeruginosa came out at 16 µg/mL. For the same compound, the “MIC S. epi 0017” value in the data set on S. epidermis was found to be 16 µg/mL. For the same compound, the “MIC B. Subtilis” value with B. Subtilis was 8 µg/mL. Moreover, the “MIC E. coli 0111:B4” value with E. coli worked out at 8 µg/mL. Besides, the “MIC E. faecalis” value with E. faecalis was 64 µg/mL. Moreover, in the data set with S. aureus, the “MIC K147” value stood at 16 µg/mL and the “MIC SAP” value turned out to be 8 µg/mL. In addition, the “MIC C610” value with C610 was determined as 8 µg/mL.
As for KWWRRALQGLKTAGPAIQSVLNK [MBI21A2], the “MIC H103” value in the data set on P. aeruginosa was 128 µg/mL. Also, the “MIC S. epi 0017” value in the data set on S. epidermis was over 128 µg/mL. In the data set on B. Subtilis, the “MIC B. Subtilis” value is over 128 µg/mL. Further, in the data set on E. coli, the “MIC E. coli 0111:B4” value came out at 32 µg/mL. Also, the “MIC E. faecalis” value with E. faecalis is over 128 µg/mL. Further, in the data set on S. aureus, the “MIC K147” value was over 128 µg/mL and the “MIC SAP” value is over 128 µg/mL. Besides, the “MIC C610” value in the data set on C610 was determined as 16 µg/mL.

For the origin of these results see US6906035B2, “Antimicrobial cationic peptides” (priority 1995, dated 2005).
